Type in all cases: binding
In assay [1] the target is T1, PARP-1 triple mutant E763/D766/D770A (Homo sapiens, UniProt P09874, D766A/D770A/E763A).
T1 construct: Full-length PARP-1 WT (residues 1–1014) was cloned in pET28 vector and site-directed mutagenesis was performed; made in house; host or cells: E. coli
The experiment in a line: DSF, full-length PARP-1 E763/D766/D770A. Conditions: BAD 1250 μM. On the procedure: (§1) DSF experiments were performed as described, [13] using 5 µM protein, 2.5 µM DNA when indicated and various concentrations of compound (BAD, carba-NAD^+, benzamide, and ADP-ribose) as indicated in Fig. 1 and Fig. 3. Experiments were performed on a Roche LightCycler 480 RT-PCR. Reactions including DNA were performed with a 26- or 28-base pair (bp) unphosphorylated oligonucleotide for PARP-1, a 28-bp 5´-phosphorylated (5´P) oligonucleotide for PARP-2, and a 47-bp oligonucleotide including a central 5´P nick for PARP-3^13 in the following buffer: 25 mM Hepes pH 8.0, 150 mM NaCl, 1 mM EDTA, and 0.1 mM TCEP. Reactions with PARP-3 were conducted at lower ionic strength to allow binding to DNA as described (25 mM Hepes pH 8.0, 50 mM NaCl, 1 mM EDTA and 0.1 mM TCEP)[13]. ΔTM values were calculated by subtracting the TM determined for the protein in the absence of compound from the TM determined in the presence of compound. Experiments were performed in triplicate and a Boltzmann sigmoid was fit to the data to determine the TM values (KaleidaGraph).
A general note: Differential scanning fluorimetry follows unfolding on heating by fluorescence.

Assay [2] addresses T2, full-length PARP-1 WT (Homo sapiens, UniProt P09874).
T2 construct: Full-length PARP-1 WT (residues 1–1014) was cloned in pET28 vector; made in house; host or cells: E. coli
The assay is described as follows: ITC, full-length PARP-1 WT with or without DNA. Conditions: for KD / Kd: compound 525 μM titrated, 25°C. Here is the method: ITC experiments were performed using a MicroCal iTC200 calorimeter (GE Healthcare). BAD or benzamide at 525 μM was titrated into PARP-1 protein (50 μM for CAT WT and CAT ΔHD, 40 μM for full-length PARP-1 WT and mutants) or PARP-1 protein with DNA (20–40 μM) at 25°C. Prior to the experiment, proteins and DNA were dialyzed in 25 mM Hepes pH 8.0, 150 mM NaCl, 1 mM EDTA, and 0.1 mM TCEP. BAD and benzamide were diluted in the dialysis buffer. PARP-1/DNA complexes were assembled and incubated at RT for 30 min prior to performing the experiment. Experiments were typically designed as follows: a first injection of 0.2 μL was followed by 16 injections of 2.5 μL with a spacing of 100 s between injections. Excess heat upon each injection was integrated using an automatically adjusted base line and derived values corrected by heat of dilution. Data analysis and curve fitting were conducted using Origin 7 software. The ITC experiment for each sample was performed either two (PARP-1 WT with benzamide, PARP-1 E763/D766/D770A with benzamide, PARP-1 D766/D770A with BAD) or three times (the remaining eight samples). Table 2 lists the average KD value and stoichiometry (n) for the replicates, and the reported errors are the calculated standard deviations (representing the range of values for experiments repeated two times). We anticipate that the sub-stoichiometric n values for CAT constructs results from either the active fraction being < 100%, or the protein concentration determination being not entirely accurate. The analysis of full-length PARP-1 yielded n values around the expected value of 1.

The target of assay [3] is T2, full-length PARP-1 WT. The assay is described as follows: DSF, full-length PARP-1 WT with or without DNA. Conditions: BAD 1250 μM; for TM: in °C (unit assumed). Here is the method:
as §1

The target in a further assay is T3, PARP-1 W246A (Homo sapiens, UniProt P09874, W246A).
T3 construct: Full-length PARP-1 WT (residues 1–1014) was cloned in pET28 vector and site-directed mutagenesis was performed; made in house; host or cells: E. coli
The experiment in a line: DSF, full-length PARP-1 W246A with or without DNA. Conditions: for TM: Figure 3b, BAD 1250 μM, in °C (unit assumed). Here is the method: as §1

The next assay has as its target T4, PARP-3 (Homo sapiens, UniProt Q9Y6F1).
T4 construct: PARP-3 (isoform b, residues 1–533) was cloned in pDEST17 vector; made in house
T4 sequence (Q9Y6F1 1-533): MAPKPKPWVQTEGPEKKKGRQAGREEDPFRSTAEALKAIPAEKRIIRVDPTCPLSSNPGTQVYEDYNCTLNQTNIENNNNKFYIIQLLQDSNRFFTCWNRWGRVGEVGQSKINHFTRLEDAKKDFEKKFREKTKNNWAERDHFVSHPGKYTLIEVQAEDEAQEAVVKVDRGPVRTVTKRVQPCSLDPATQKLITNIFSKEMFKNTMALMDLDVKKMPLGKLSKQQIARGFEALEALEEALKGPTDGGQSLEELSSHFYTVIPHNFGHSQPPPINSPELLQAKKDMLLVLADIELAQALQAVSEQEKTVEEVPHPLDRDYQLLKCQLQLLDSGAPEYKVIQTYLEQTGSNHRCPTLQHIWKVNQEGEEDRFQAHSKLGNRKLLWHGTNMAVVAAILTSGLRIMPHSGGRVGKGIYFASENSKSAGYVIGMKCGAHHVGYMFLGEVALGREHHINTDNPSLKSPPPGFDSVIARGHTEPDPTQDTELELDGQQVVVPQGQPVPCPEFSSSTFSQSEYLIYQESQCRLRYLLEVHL
The assay is described as follows: DSF, full-length PARP-3 with or without DNA. Conditions: for TM: Figure 3c, BAD 1250 μM, in °C (unit assumed). On the procedure: as §1

Experimental findings from paper PMC5829251, “NAD^+ analog reveals PARP-1 substrate-blocking mechanism and allosteric communication from catalytic center to DNA-binding domains” (Nature Communications, 2018) are described below.

Values joined by “and” are separate entries in the source; they are usually repeats but may differ in a detail not shown here. Equal values may be shown once.

T2 sequence (P09874 whole entry, the tested form may be a part): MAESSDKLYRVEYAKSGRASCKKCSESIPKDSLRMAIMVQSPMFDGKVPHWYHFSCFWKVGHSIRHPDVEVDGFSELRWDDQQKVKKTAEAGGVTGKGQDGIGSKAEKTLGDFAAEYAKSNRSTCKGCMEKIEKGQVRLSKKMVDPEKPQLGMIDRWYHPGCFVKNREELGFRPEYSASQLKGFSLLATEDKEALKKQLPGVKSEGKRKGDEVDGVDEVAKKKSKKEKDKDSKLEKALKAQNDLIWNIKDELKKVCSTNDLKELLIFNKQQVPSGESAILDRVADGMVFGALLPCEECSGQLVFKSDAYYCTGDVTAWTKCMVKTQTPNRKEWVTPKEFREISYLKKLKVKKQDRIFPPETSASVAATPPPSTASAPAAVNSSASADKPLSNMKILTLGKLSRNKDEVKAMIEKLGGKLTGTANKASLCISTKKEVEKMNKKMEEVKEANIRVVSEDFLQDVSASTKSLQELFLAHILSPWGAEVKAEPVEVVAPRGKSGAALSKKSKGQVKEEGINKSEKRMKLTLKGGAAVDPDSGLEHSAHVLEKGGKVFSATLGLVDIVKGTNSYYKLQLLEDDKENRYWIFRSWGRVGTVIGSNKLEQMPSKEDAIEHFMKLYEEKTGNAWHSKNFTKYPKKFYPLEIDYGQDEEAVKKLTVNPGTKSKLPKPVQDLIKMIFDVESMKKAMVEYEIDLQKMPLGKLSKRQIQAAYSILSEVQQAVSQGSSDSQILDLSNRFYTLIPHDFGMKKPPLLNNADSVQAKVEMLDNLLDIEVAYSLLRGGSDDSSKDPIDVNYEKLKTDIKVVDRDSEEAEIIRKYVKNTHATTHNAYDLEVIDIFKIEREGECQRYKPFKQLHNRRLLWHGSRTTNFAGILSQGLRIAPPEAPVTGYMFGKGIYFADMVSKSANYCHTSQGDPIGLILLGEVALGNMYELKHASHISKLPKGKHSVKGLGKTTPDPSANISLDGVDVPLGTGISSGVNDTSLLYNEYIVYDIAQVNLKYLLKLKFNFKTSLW
T3 sequence (P09874 whole entry W246A, the tested form may be a part): as the sequence (P09874 whole entry, the tested form may be a part) above, with W246A counted along it
T1 sequence (P09874 whole entry E763A/D766A/D770A, the tested form may be a part): as the sequence (P09874 whole entry, the tested form may be a part) above, with E763A, D766A, D770A counted along it

As for `NC(=O)c1cccc(C2OC(COP(=O)(O)OP(=O)(O)OCC3OC(n4cnc5c(N)ncnc54)C(O)C3O)C(O)C2O)c1` (stereo not drawn) [BAD, benzamide adenine dinucleotide], the TM is on record as 50.13 in assay [1] (Figure 3a, no DNA, TM without BAD 45.74, in °C (unit assumed)); 47.65 on full-length PARP-1 WT [3] (Figure 3a, WT with DNA (2.5 μM, 26-bp duplex), TM without BAD 44.35); 48.19 at full-length PARP-1 WT [3] (Figure 3a, WT, no DNA, TM without BAD 48.17); 45.99 at full-length PARP-1 WT [3] (Figure 3b, WT with DNA (2.5 μM, 26-bp duplex), TM without BAD 42.85); 47.09 on full-length PARP-1 WT [3] (Figure 3b, WT, no DNA, TM without BAD 47.41); 48.15 at full-length PARP-1 WT [3] (Figure 3c, PARP-1, no DNA, TM without BAD 47.93). Also, the TM on full-length PARP-1 WT [3] (Figure 3c, PARP-1 with DNA (2.5 μM, 28-bp duplex), TM without BAD 44.45) was determined as 48.03; on PARP-1 W246A (W246A with DNA (2.5 μM), TM without BAD 47.45), 47.41; at PARP-1 W246A (W246A, no DNA, TM without BAD 47.24), 47.23; on PARP-3 (PARP-3, no DNA, TM without BAD 35.81), 35.54; at PARP-3 (PARP-3 with DNA (2.5 μM, 47-bp duplex with central 5'P nick), TM without BAD 39.70), 41.02. Also, the “TM change in the presence of BAD” value in assay [1] (did not require the presence of DNA) is reported as “increase in TM”. Further, at full-length PARP-1 WT [2] (FL WT 40 μM, without DNA), the KD entry is “no evidence of BAD binding”. Also, the “n (stoichiometry)” value on full-length PARP-1 WT [2] (FL WT with DNA) was 1.11 + /− 0.29. Also, at full-length PARP-1 WT [2] (FL WT with DNA (40 μM, 8 bp-duplex)), the Kd (as a rule, the constant that tells how readily two partners part at equilibrium) is 1800 nM and 1810 nM. Moreover, at full-length PARP-1 WT [3] (with or without DNA (2.5 μM)), the “increase in the TM of full-length PARP-1 owing to BAD” value is recorded as “observed only with DNA present”. Further, the “TM shift in the presence of BAD and DNA” value on PARP-1 W246A (W246A (Zn1–Zn3 interface mutation), relative to WT) is on record as “substantial reduction in TM shift”. Also, the “evidence of BAD binding in the DSF assay” value on PARP-3 (PARP-3, with or without DNA bearing 5'P) is on record as “only showed evidence of BAD binding in the presence of activating DNA”.

Turning to `NC(=O)c1ccccc1` [benzamide], on full-length PARP-1 WT [2] (FL WT 40 μM, without DNA), the KD entry is “bound to benzamide in the absence of DNA” and the equilibrium dissociation constant (Kd) turned out to be 2320 nM. At full-length PARP-1 WT [2] (FL WT, without DNA), the “n (stoichiometry)” value is on record as 0.88 + /− 0.01.
